Assay results: US8093386B2, “Thioaryl substituted inhibitors of zinc proteases and their use” (Bracco Imaging S.p.A, priority 2006, dated 2012)

Columns and labels:
Assay type in all cases: biochemical
MMP-9 = biological target: T1, MMP-9 (Homo sapiens, UniProt P14780); test: In vitro fluorometric inhibition assay of MMPs: MMP-9
T1 construct: gift of Prof; Gillian Murphy (Oncology Department, Cambridge University, UK)
Protocol: (§1) Analysis of the In Vitro Inhibition Activity of Zinc Metalloproteinases: In Vitro Inhibition of MMMPs
The human recombinant Progelatinase A (pro-MMP-2), B (pro-MMP-9), MMP-14cd and MMP-16cd, were provided by Prof. Gillian Murphy (Oncology Department, Cambridge University, UK); pro-MMP-1, pro-MMP-3, pro-MMP-7, pro-MMP-8, pro-MMP-13 and pro-MMP-14 were bought from Calbiochem. […] Pro-MMP-14 and pro-MMP-3 were activated with trypsin 5 μg/ml for 15 min at 37° C. followed the soybean trypsin inhibitor (SBTI) 23 μg/ml for pro-MMP-14 and 62 μg/ml for pro-MMP-3. The catalytic domains of MMP-14 and MMP-16 were utilized without activation.
For the assay measurements, the stock solutions of the inhibitor (DMSO, 100 mM) were further diluted up to 7 different concentrations (0.01 nM-300 μM) for each MMP, in the buffer for the fluorometric assay (FAB: Tris 50 mM, pH=7.5, NaCl 150 mM, CaCl2 10 mM, Brij 35 0.05% and DMSO 1%). […] After the addition of solution of fluorogenic substrate 200 μM Mca-Arg-Pro-Lys-Pro-Val-Glu-Nva-Trp-Arg-Lys(Dnp)-NH2 (Sigma) for MMP-3 and Mca-Lys-Pro-Leu-Gly-Leu-Dpa-Ala-Arg-NH2 (Bachem) for all the other enzymes in DMSO (final concentration 2 μM), the hydrolysis were monitored every 15 sec for 20 min, recording the increase in fluorescence (λex=325 nm, λem=400 nm) with a Molecular Device SpectraMax Gemini XS plates reader. The assays were made in triplicate in a total volume of 200 μl per well on 96 well-plates for microtitolation (Corning, black, NBS). The control wells were without inhibitor.
(§2) The inhibition activity of MMP was expressed in relative fluorescence unit (RFU). The percentage of inhibition was calculated using control reactions without inhibitor.
(§3) IC50 was determined using the formula: Vi/Vo=1/(1+[I]/IC50), wherein Vi is the initial rate of the substrate scission in presence of the inhibitor at the concentration [I] and Vo is the initial rate in the absence of inhibitor. The results were analyzed with the SoftMax Pro software and the GraFit software.

MMP-1 = biological target: T2, MMP-1 (Homo sapiens, UniProt P03956); test: In vitro fluorometric inhibition assay of MMPs: MMP-1; details: Table I, cells without (*)
T2 construct: purchased Calbiochem
T2 sequence (P03956 100-469): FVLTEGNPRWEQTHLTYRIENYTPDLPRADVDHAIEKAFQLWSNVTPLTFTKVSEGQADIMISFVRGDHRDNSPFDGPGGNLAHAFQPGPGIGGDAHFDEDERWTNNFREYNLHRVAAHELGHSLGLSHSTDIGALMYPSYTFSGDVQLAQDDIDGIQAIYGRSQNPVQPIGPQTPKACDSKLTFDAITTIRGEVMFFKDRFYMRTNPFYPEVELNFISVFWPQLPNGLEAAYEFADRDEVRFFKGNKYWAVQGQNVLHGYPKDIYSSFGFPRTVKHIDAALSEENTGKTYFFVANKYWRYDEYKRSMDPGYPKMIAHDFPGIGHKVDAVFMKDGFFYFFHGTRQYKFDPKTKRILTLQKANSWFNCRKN
Protocol: as §1
(§4) The human recombinant Progelatinase A (pro-MMP-2), B (pro-MMP-9), MMP-14cd and MMP-16cd, were provided by Prof. Gillian Murphy (Oncology Department, Cambridge University, UK); pro-MMP-1, pro-MMP-3, pro-MMP-7, pro-MMP-8, pro-MMP-13 and pro-MMP-14 were bought from Calbiochem. The proenzymes were activated immediately before the use with p-aminophenylmercuric acetate (APMA 2 mM for 1 h at 37° C. for MMP-1, MMP-2 and MMP-8, 1 mM for 1 h at 37° C. for MMP-9 and MMP-7, 1 mM for 30 min at 37° C. for MMP-13). Pro-MMP-14 and pro-MMP-3 were activated with trypsin 5 μg/ml for 15 min at 37° C. followed the soybean trypsin inhibitor (SBTI) 23 μg/ml for pro-MMP-14 and 62 μg/ml for pro-MMP-3. The catalytic domains of MMP-14 and MMP-16 were utilized without activation.
(§5) For the assay measurements, the stock solutions of the inhibitor (DMSO, 100 mM) were further diluted up to 7 different concentrations (0.01 nM-300 μM) for each MMP, in the buffer for the fluorometric assay (FAB: Tris 50 mM, pH=7.5, NaCl 150 mM, CaCl2 10 mM, Brij 35 0.05% and DMSO 1%). The solutions of activated enzyme (final concentrations 2.9 nM for MMP-2, 2.7 nM for MMP-9, 2.4 nM for MMP-7, 1 nM for MMP-14 and MMP-3, 1.5 nM for MMP-8 and MMP-16cd, 0.84 nM for MMP-14cd, 0.66 nM for MMP-13 and 0.20 nM for MMP-1) and of inhibitor were incubated in the assay buffer for 4 h at 25° C. After the addition of solution of fluorogenic substrate 200 μM Mca-Arg-Pro-Lys-Pro-Val-Glu-Nva-Trp-Arg-Lys(Dnp)-NH2 (Sigma) for MMP-3 and Mca-Lys-Pro-Leu-Gly-Leu-Dpa-Ala-Arg-NH2 (Bachem) for all the other enzymes in DMSO (final concentration 2 μM), the hydrolysis were monitored every 15 sec for 20 min, recording the increase in fluorescence (λex=325 nm, λem=400 nm) with a Molecular Device SpectraMax Gemini XS plates reader. The assays were made in triplicate in a total volume of 200 μl per well on 96 well-plates for microtitolation (Corning, black, NBS). The control wells were without inhibitor.
as §2, §3

MMP-2 = biological target: T3, MMP-2 (Homo sapiens, UniProt P08253); test: In vitro fluorometric inhibition assay of MMPs: MMP-2
T3 construct: gift of Prof; Gillian Murphy (Oncology Department, Cambridge University, UK)
T3 sequence (P08253 110-660): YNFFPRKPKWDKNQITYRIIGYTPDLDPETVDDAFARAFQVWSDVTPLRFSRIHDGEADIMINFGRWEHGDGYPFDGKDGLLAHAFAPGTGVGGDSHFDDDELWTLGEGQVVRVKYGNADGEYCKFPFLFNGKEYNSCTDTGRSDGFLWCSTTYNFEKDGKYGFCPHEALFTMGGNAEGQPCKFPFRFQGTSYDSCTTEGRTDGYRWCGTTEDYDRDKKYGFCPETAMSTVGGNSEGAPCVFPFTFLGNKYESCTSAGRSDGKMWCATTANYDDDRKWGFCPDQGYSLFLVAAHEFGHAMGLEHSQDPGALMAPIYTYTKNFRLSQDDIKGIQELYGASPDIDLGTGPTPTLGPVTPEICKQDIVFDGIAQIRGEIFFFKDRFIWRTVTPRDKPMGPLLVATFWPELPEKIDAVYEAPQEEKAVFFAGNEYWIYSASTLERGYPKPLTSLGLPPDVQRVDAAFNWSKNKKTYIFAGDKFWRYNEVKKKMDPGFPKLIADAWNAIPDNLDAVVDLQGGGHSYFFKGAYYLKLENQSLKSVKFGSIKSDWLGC
Protocol: as §1, §4, §5, §2, §3

MMP-14 = biological target: T4, MMP-14 (Homo sapiens, UniProt P50281); test: In vitro fluorometric inhibition assay of MMPs: MMP-14
T4 construct: purchased Calbiochem
Protocol: as §1, §4, §5, §2, §3

T1 sequence (P14780 107-707 limits assumed): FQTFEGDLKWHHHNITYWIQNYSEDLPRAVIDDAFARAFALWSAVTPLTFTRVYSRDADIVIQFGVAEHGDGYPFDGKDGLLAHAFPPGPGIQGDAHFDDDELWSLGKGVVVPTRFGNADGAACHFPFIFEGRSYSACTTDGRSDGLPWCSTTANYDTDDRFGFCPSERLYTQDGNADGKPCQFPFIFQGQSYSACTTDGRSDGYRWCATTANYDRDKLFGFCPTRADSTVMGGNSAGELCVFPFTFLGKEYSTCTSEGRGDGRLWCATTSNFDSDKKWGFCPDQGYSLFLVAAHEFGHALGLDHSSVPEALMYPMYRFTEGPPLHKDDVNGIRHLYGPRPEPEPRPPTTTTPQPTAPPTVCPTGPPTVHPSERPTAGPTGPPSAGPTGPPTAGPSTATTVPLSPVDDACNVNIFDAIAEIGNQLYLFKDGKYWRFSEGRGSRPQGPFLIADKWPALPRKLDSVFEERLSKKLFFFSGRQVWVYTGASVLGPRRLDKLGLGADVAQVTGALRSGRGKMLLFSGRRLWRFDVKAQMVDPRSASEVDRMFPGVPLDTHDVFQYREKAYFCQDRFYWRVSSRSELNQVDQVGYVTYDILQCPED

Row | SMILES | IC50 (MMP-9; Table I, cells without (*)) | IC50 (MMP-1) | IC50 (MMP-2; Table I, cells without (*)) | also measured
1 | O=C(O)Cc1ccccc1Sc1ccc(-c2ccccc2)cc1 | 6.7 ± 0.3 µM | 334 ± 5.7 µM | 0.33 ± 0.026 µM | 
2 | O=C(O)CC(C(=O)O)c1ccccc1Sc1ccc(-c2ccccc2)cc1 (stereo not drawn) | 95 ± 8.7 µM | 189 ± 28 µM | 11 ± 1.1 µM | 
3 | O=C1CC(c2ccccc2Sc2ccc(-c3ccccc3)cc2)C(=O)N1O (stereo not drawn) | 35 ± 2.7 µM | 83 ± 11 µM | 12 ± 0.8 µM | 
4 | O=C1CC(c2ccccc2S(=O)(=O)c2ccc(-c3ccccc3)cc2)C(=O)N1O (stereo not drawn) | 47 ± 2.7 µM | 186 ± 8 µM | 7 ± 0.5 µM | 
5 | O=C(O)CCC(C(=O)O)c1ccccc1Sc1ccc(-c2ccccc2)cc1 (stereo not drawn) | 17 ± 0.96 µM | 190 ± 10 µM | 1.8 ± 0.16 µM | 
6 | COc1ccc(Oc2ccc(Sc3ccccc3C(=O)NS(C)(=O)=O)cc2)cc1 [Compound 8, 2-(4-(4-methoxyphenoxy)phenylthio)-N-(methylsulphonyl)benzamide] |  |  |  | IC50 (MMP-14; Table III, cells marked (*)): 79 ± 6 µM; IC50 (MMP-9; Table III, cells marked (*)): 17.8 ± 1.3 µM; IC50 (MMP-2; Table III, cells marked (*)): 12.2 ± 1.6 µM
7 | COc1ccc(Oc2ccc(Sc3ccccc3CC(=O)O)cc2)cc1 [Compound 11, 2-(2-(4-(4-methoxyphenoxy)phenylthio)phenyl)acetic acid] |  |  |  | IC50 (MMP-14; Table III, cells without (*)): 297 ± 64 µM; IC50 (MMP-9; Table III, cells without (*)): 48.7 ± 8.6 µM; IC50 (MMP-2; Table III, cells without (*)): 20 ± 8 µM
8 | COc1ccc(Oc2ccc(Sc3ccccc3CC(=O)NO)cc2)cc1 [Compound 13] |  |  |  | IC50 (MMP-9; Table III, cells without (*)): 0.105 ± 0.013 µM; IC50 (MMP-2; Table III, cells without (*)): 0.568 ± 0.031 µM
9 | COc1ccc(-c2ccc(Sc3ccccc3CC(=O)O)cc2)cc1 [Compound 22, 2-(2-(4′-methoxybiphenyl-4-ylthio)phenyl)acetic acid] |  |  |  | IC50 (MMP-14; Table II, cells marked (*)): 3.65 ± 0.2 µM; IC50 (MMP-2; Table II, cells marked (*)): 0.114 ± 0.005 µM
10 | COc1ccc(-c2ccc(Sc3ccccc3CC(=O)NS(C)(=O)=O)cc2)cc1 [Compound 25, 2-(2-(4′-methoxybiphenyl-4-ylthio)phenyl)-N-(methylsulphonyl)acetamide] |  |  |  | IC50 (MMP-14; Table II, cells without (*)): 127 ± 6.9 µM; IC50 (MMP-9; Table II, cells without (*)): 17.7 ± 1.4 µM; IC50 (MMP-2; Table II, cells without (*)): 5.34 ± 0.65 µM
11 | O=C(Cc1ccccc1Sc1ccc(-c2ccsc2)cc1)NO [Compound 30, N-hydroxy-2-(2-(4-(thiophene-3-yl)phenylthio)phenyl)acetamide] |  |  |  | IC50 (MMP-9; Table I, cells marked (*)): 1.11 ± 0.136 µM; IC50 (MMP-2; Table I, cells marked (*)): 0.0379 ± 0.0022 µM
